Test results published in patent US20200188361A1, “USE OF MITOCHONDRIAL ACTIVITY INHIBITORS FOR THE TREATMENT OF POOR PROGNOSIS ACUTE MYELOID LEUKEMIA” (UNIVERSITE DE MONTREAL, priority 2016, published 2020).
Structures can show the parent of a compound that is named as a salt. Where two headings read alike, the source gives them in different places.

Tests used:
OCI-AML3 cells = assay: Dose-response curves in AML cell line (6-day culture assay in 384-well plates); format: cell-based; details: dose-response curves FIGS. 5H-J
Experimental: FIGS. 5A-5J show the results on experiments assessing the mode of action of Mubritinib for mediating tumor cell death. FIG. 5A: OCI-AML3 leukemic cells were either pre-incubated for 4 hours with 6 mM N-acetyl-cysteine (NAC), a reactive oxygen species (ROS) scavenger, or with vehicle (water) before being treated with 100 nM Mubritinib for 24 h or vehicle (DMSO). […] FIGS. 5C and 5D show the levels of reduced and oxidized levels of glutathione, respectively, in OCI-AML3 treated or not with Mubritinib, as detected by liquid chromatography-mass spectrometry (LC/MS). […] FIG. 5G is a graph depicting dose-response curves upon Mubritinib treatment (6-day culture assay in 384-well plates) of OCI-AML3 and OCI-AML5 cell lines. FIGS. 5H-J are graphs depicting dose-response curves following treatment of OCI-AML3 and OCI-AML5 cell lines with other ETC inhibitors, namely Oligomycin (inhibitor of complex V, FIG. 5H), Rotenone (inhibitor of complex I, FIG. 5I) and Deguelin (inhibitor of complex I, FIG. 5J).
OCI-AML3 cells were maintained in alpha-MEM, 20% FBS whereas breat tumor BT474 cells were maintained in DMEM 10% FBS.
(§1) Patient cells were seeded in 384-well plates at a density of 5,000 cells in 50 μL per well. In the initial screen, compounds were added to seeded cells in serial dilutions (10 dilutions, 1:3, starting from 10 μM or 20 μM), in duplicates. Cells treated with 0.1% DMSO without additional compound were used as negative controls. Viable cell counts per well were evaluated after 6 days of culture using the CellTiterGlo® assay (Promega®) according to the manufacturer's instruction. The percent of inhibition was calculated as follows: 100−(100×(mean luminescence(compound)/mean luminescence(DMSO)); where mean-luminescence(compound) corresponds to the average of luminescent signals obtained for the compound-treated cells, and mean-luminescence(DMSO) corresponds to the average of luminescent signals obtained for the control DMSO-treated cells.

AML patient specimens = assay: Cell dose-response viability assay on AML patient specimens (primary and validation screen); format: cell-based, human; details: all 41 AML patient specimens tested, primary screen (FIG. 4D)
Experimental: (§2) frozen AML mono-nucleated cells were thawed at 37° C. in Iscove's modified Dulbecco's medium (IMDM) containing 20% FBS and DNase I (100 μg/mL).
as §1

[1] = system: HOX-high AML patient cells; assay: Primary chemical screen of 60 compounds, cell dose-response viability assay (CellTiterGlo, 6 days); format: cell-based, human; details: for EC50: primary screen, mean over HOX-high patient specimens, 6 days culture, top concentration 10 μM or 20 μM, read-out: MEAN EC50 HOX-high
Experimental: as §2
(§3) All powders were dissolved in DMSO and diluted in culture medium immediately before use. Final DMSO concentration in all conditions was 0.1%. The 60 compounds were purchased from various suppliers including Santa Cruz, Selleckchem, Calbiochem, AdooQ Bioscience, Cayman chemical and Synkinase.
(§4) Patient cells were seeded in 384-well plates at a density of 5,000 cells in 50 μL per well. In the initial screen, compounds were added to seeded cells in serial dilutions (10 dilutions, 1:3, starting from 10 μM or 20 μM), in duplicates. Cells treated with 0.1% DMSO without additional compound were used as negative controls. Viable cell counts per well were evaluated after 6 days of culture using the CellTiterGlo® assay (Promega®) according to the manufacturer's instruction.
(§5) Using high expression of HOXA9 and HOXA10 as a surrogate for the detection of HOX-network-high patient samples, the survival of HOX-high versus HOX-med/low specimens contacted with 60 inhibitors targeting receptor tyrosine kinases (RTK), members of the RAS and PI3K pathways, was assessed (FIG. 2A, Table 4).

[2] = system: HOX-med/low AML patient cells; assay: as above; format: cell-based, human; details: primary screen, mean over HOX-med/low patient specimens, 6 days culture, top concentration 10 μM or 20 μM, read-out: MEAN EC50 HOX-med/low
Experimental: as §2, §3, §4, §5

[3] = ratio of mean EC50 HOX-high to mean EC50 HOX-med/low

## COc1cc2c(cc1OC)[C@@H]1C(=O)c3ccc4c(c3O[C@@H]1CO2)C=CC(C)(C)O4 [Deguelin]
OCI-AML3 cells
  sensitivity of OCI-AML3 relative to OCI-AML5: more sensitive than OCI-AML5

## CC[C@H]1/C=C/C=C/C[C@@H](C)[C@H](O)[C@@](C)(O)C(=O)[C@@H](C)[C@H](O)[C@@H](C)C(=O)[C@@H](C)[C@H](O)[C@@H](C)/C=C/C(=O)O[C@@H]2[C@H](C)[C@H](CC1)O[C@]1(CC[C@H](C)[C@H](C[C@@H](C)O)O1)[C@H]2C [Oligomycin]
OCI-AML3 cells
  sensitivity of OCI-AML3 relative to OCI-AML5: more sensitive than OCI-AML5

## CS(=O)(=O)CCNCc1ccc(-c2ccc3ncnc(Nc4ccc(OCc5cccc(F)c5)c(Cl)c4)c3c2)o1 [Lapatinib ditosylate., Lapatinib ditosylate]
AML patient specimens
  sensitivity of AML patient specimens: resistant
[1]; Homo sapiens, 144 h
  EC50: 8.87 µM
[1]; [3]
  FOLD CHANGE High/Med-low: 0.9
[2]; Homo sapiens, 144 h
  EC50: 9.92 µM

## Nc1[nH]nc2nnc(-c3c(-c4ccccc4)nn4ccccc34)cc12 [ERK Inhibitor II FR180204]
[1]
  EC50: > 10 µM
[1]; [3]
  FOLD CHANGE High/Med-low: 1.0
[2]
  EC50: > 10 µM

## Cc1ccc(Nc2c(C(N)=O)cnc3cc(-c4ccc(S(C)(=O)=O)cc4)ccc23)cc1C [cFMS Receptor Inhibitor III]
[1]
  EC50: 8.86 µM
[1]; [3]
  FOLD CHANGE High/Med-low: 1.1
[2]
  EC50: 7.97 µM

## Nc1ncnc2c1c(-c1cccc(OCc3ccccc3)c1)cn2C1CC(CN2CCC2)C1 (stereo not shown) [NVPAEW541]
[1]
  EC50: 1.73 µM
[1]; [3]
  FOLD CHANGE High/Med-low: 1.0
[2]
  EC50: 1.77 µM

## CNC(=O)c1cc(Oc2ccc(NC(=O)Nc3ccc(Cl)c(C(F)(F)F)c3)cc2)ccn1 [Sorafenib Tosylate]
[1]
  FOLD CHANGE High/Med-low: 1.2
[1]; Homo sapiens, 144 h
  EC50: 1.1 µM
[2]; Homo sapiens, 144 h
  EC50: 0.936 µM

## NC(=O)N1CCC(CC(=O)N2CCC([C@H]3c4ncc(Br)cc4CCc4cc(Cl)cc(Br)c43)CC2)CC1 [Lonafarnib]
[1]; Homo sapiens, 144 h
  EC50: 2.49 µM
[1]; [3]
  FOLD CHANGE High/Med-low: 0.7
[2]; Homo sapiens, 144 h
  EC50: 3.67 µM

## C=C(C)[C@H]1Cc2c(ccc3c2O[C@@H]2COc4cc(OC)c(OC)cc4[C@@H]2C3=O)O1 [Rotenone]
OCI-AML3 cells
  sensitivity of OCI-AML3 relative to OCI-AML5: more sensitive than OCI-AML5

## C=CCNC1=C2C[C@@H](C)C[C@H](OC)[C@H](O)[C@@H](C)/C=C(\C)[C@H](OC(N)=O)[C@@H](OC)/C=C\C=C(/C)C(=O)NC(=CC1=O)C2=O [Tanespimycin 17AAG, Tanespimycin]
[1]; Homo sapiens, 144 h
  EC50: 0.314 µM
[1]; [3]
  FOLD CHANGE High/Med-low: 1.3
[2]; Homo sapiens, 144 h
  EC50: 0.249 µM
